Experimental data published in patent publication US9572345B2, “Pesticidal composition in the form of aqueous emulsion” (Sumitomo Chemical Company, Limited, priority 2012, dated 2017).

Experiment: Retention rate of the agriculturally active ingredient after xenon light irradiation (neat film on petri dish)
Format: physicochemical
Settings: xenon light (290 nm cutoff), intensity 0.68 W/m^2 at 340 nm, 8 hours, 35° C.; 5 mg air-dried on glass petri dish; HPLC
Procedure: A method for the calculation of a retention rate of the agriculturally active ingredient defined above is more specifically as follows. First, 250 mg of the agriculturally active ingredient is dissolved in 50 ml of a solvent such as acetone, which can sufficiently dissolve the agriculturally active ingredient and also has high volatility, and 1 mL of the solution is added to a glass petri dish having a diameter of 6 cm using a one-mark pipette, spread entirely over the petri dish, and then air-dried at room temperature. The petri dish is covered with a lid made of quartz glass and then set in a weathering tester (manufactured by Q-Lab Corporation under the trade name of Q-SUN Xenon Accelerated Weathering Tester, Model Xe-3) equipped with a borosilicate filter (manufactured by Q-Lab Corporation under the trade name of Daylight-BB Optical Filter) attached thereto. After irradiation with xenon light under the conditions of an intensity at 340 nm of 0.68 W/m^2 and a temperature of 35° C. (35° C. as measured by an insulated black panel thermometer) for 8 hours, the amount of the agriculturally active ingredient remaining on the petri dish is determined by a known determination method such as high-performance liquid chromatography. It is possible to determine a retention rate by calculating as the weight percentage relative to 5 mg of the agriculturally active ingredient used above. […]

With `C=CCSC(=O)n1c(N)c(-c2ccccc2C)c(=O)n1C(C)C` [fenpyrazamine] the “retention rate after irradiation with xenon light” value was 28.1%.
